Source: article PMC2982820, “Characterisation of PduS, the pdu Metabolosome Corrin Reductase, and Evidence of Substructural Organisation within the Bacterial Microcompartment” (PLoS ONE, 2010)

Experiments:
[1] = molecular target: T1, PduS (Citrobacter freundii, UniProt B1VB77); assay: heat release of bound flavin, RP-HPLC-MS against FMN and FAD standards; type: binding; details: non-covalently bound, co-purified
T1 construct: full length, N-terminal hexa-His tag (pET14b, pJP024; template pAR3114), E. coli BL21(DE3)pLysS; FMN and two [4Fe-4S] when purified anaerobically
T1 sequence (B1VB77 1-451): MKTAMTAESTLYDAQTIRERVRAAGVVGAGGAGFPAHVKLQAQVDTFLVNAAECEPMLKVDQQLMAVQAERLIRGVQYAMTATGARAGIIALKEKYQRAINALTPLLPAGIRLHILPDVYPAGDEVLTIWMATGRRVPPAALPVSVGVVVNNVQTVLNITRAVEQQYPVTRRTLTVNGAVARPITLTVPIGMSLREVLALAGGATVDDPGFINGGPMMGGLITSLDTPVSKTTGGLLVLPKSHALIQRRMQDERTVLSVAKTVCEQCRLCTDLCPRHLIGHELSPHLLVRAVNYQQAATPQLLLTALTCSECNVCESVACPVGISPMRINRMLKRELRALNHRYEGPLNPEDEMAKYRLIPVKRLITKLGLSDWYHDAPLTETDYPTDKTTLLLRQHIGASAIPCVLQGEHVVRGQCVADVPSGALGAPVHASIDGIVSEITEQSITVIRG

[2] = substrate: NC(=O)C1=CN([C@@H]2O[C@H](COP(=O)(O)OP(=O)(O)OC[C@H]3O[C@@H](n4cnc5c(N)ncnc54)[C@H](O)[C@@H]3O)[C@@H](O)[C@H]2O)C=CC1; assay: purified protein; type: biochemical, Citrobacter freundii; details: cob(III)alamin as co-substrate, 20 mM Tris-HCl pH 8.0, 37 °C, anaerobic

| Molecule | heat release of bound flavin, RP-HPLC-MS against FMN and FAD standards [1] | Km [2] |
| --- | --- | --- |
| Cc1cc2nc3c(=O)[nH]c(=O)nc-3n(C[C@H](O)[C@H](O)[C@H](O)COP(=O)(O)O)c2cc1C [FMN] | flavin extracted from PduS was found to have a retention time identical to authentic FMN | – |
| PduS (Citrobacter freundii) (protein, full length, N-terminal hexa-His tag (pET14b, pJP024; template pAR3114), E. coli BL21(DE3)pLysS; FMN and two [4Fe-4S] when purified anaerobically) MKTAMTAESTLYDAQTIRERVRAAGVVGAGGAGFPAHVKLQAQVDTFLVNAAECEPMLKVDQQLMAVQAERLIRGVQYAMTATGARAGIIALKEKYQRAINALTPLLPAGIRLHILPDVYPAGDEVLTIWMATGRRVPPAALPVSVGVVVNNVQTVLNITRAVEQQYPVTRRTLTVNGAVARPITLTVPIGMSLREVLALAGGATVDDPGFINGGPMMGGLITSLDTPVSKTTGGLLVLPKSHALIQRRMQDERTVLSVAKTVCEQCRLCTDLCPRHLIGHELSPHLLVRAVNYQQAATPQLLLTALTCSECNVCESVACPVGISPMRINRMLKRELRALNHRYEGPLNPEDEMAKYRLIPVKRLITKLGLSDWYHDAPLTETDYPTDKTTLLLRQHIGASAIPCVLQGEHVVRGQCVADVPSGALGAPVHASIDGIVSEITEQSITVIRG | – | 24.7 µM |
